Data reported in patent publication US10202374B2, “6-aryl-4-phenylamino-quinazoline analogs as phosphoinositide-3-kinase inhibitors” (COUNCIL OF SCIENTIFIC & INDUSTRIAL RESEARCH, priority 2014, dated 2019).

Experiments:
HL-60 (leukemia) cells = experiment: MTT cytotoxicity assay, HL-60; assay type: cell-based; details: Homo sapiens, 48 h treatment, read-out: Anticancer activity IC50 HL-60
Procedure: (§1) Compounds proposed in present invention were evaluated for their cytotoxic effect against panel of 5 cancer cell line viz. Panc-1 (pancreatic cancer), MCF-7 (breast cancer), PC-3 (prostate), HL-60 (leukemia) and A-375 (melanoma) using MTT assay. In each well of a 96-well plate, 3×10^3 cells were grown in 100 μL of medium. After 24 h, each test molecules were added to achieve a final concentration of 10 to 0.01 μmol/L, respectively. After 48 h of treatment, 20 μL of 2.5 mg/mL MTT (Organics Research, Inc.) solution in phosphate buffer saline was added to each well. […], supernatant was removed and formazan crystals were dissolved in 200 μL of DMSO. Absorbance was then measured at 570 nm using an absorbance plate reader (Bio-Rad Microplate Reader). Data are expressed as the percentage of viable cells in treated relative to non-treated conditions. Each experiment was repeated thrice and data was expressed as mean±SD of three independent experiments (Mordant, P. et al., Mol. Cancer Ther. 2010, 9, 358).

A-375 (melanoma) cells = experiment: MTT cytotoxicity assay, A375; assay type: cell-based; details: Homo sapiens, 48 h treatment, read-out: Anticancer activity IC50 A375
Procedure: as §1

[1] = system: MCF-7 (breast cancer) cells; experiment: MTT cytotoxicity assay, MCF-7; assay type: cell-based; details: Homo sapiens, MCF7, 48 h treatment, read-out: Anticancer activity IC50 MCF-7
Procedure: as §1

[2] = system: Panc-1 (pancreatic cancer) cells; experiment: MTT cytotoxicity assay, Panc-1; assay type: cell-based; details: Homo sapiens, 48 h treatment, read-out: Anticancer activity IC50 Panc-1
Procedure: as §1

[3] = system: PC-3 (prostate cancer) cells; experiment: MTT cytotoxicity assay, PC-3; assay type: cell-based; details: Homo sapiens, 48 h treatment, read-out: Anticancer activity IC50 PC-3
Procedure: as §1

PI3K-α = PI3K-α (Homo sapiens, UniProt P42336); experiment: PI3K-α assay (ADP-Glo); assay type: biochemical; details: for IC50: read-out: PI3K inhibition IC50 -α
Procedure: The enzyme is assayed for 80 min after which 20 ul of ADP-Glo reagent is added. After a further incubation of 40 min, 40 ul of Kinase Detection Buffer is added. The assays are incubated for 40 min and then read on PerkinElmer Envision for 1 sec/well.

PI3K-β = PI3K-β (Homo sapiens, UniProt P42338); experiment: PI3K-β assay (ADP-Glo); assay type: biochemical; details: for IC50: read-out: PI3K inhibition IC50 -β; for Fold-selectivity for PI3K-α with respect to -β: α versus β isoform
Procedure: The enzyme is assayed for 60 min after which 20 ul of ADP-Glo reagent is added. After a further incubation of 40 min, 40 ul of kinase detection Buffer is added. The assays are incubated for 40 min and then read on PerkinElmer Envision for 1 sec/well.

PI3K-γ = PI3K-γ (Homo sapiens, UniProt P48736); experiment: PI3K-γ assay (ADP-Glo); assay type: biochemical; details: for IC50: read-out: PI3K inhibition IC50 -γ; for Fold-selectivity for PI3K-α with respect to -γ: α versus γ isoform
Procedure: The enzyme is assayed for 75 min after which 20 ul of ADP-Glo reagent is added. After a further incubation of 40 min, 40 ul of Kinase Detection Buffer is added. The assays are incubated for 40 min and then read on PerkinElmer Envision for 1 sec/well.

PI3K-δ = PI3K-δ (Homo sapiens, UniProt O00329); experiment: PI3K-δ assay (ADP-Glo); assay type: biochemical; details: for IC50: read-out: PI3K inhibition IC50 -δ; for Fold-selectivity for PI3K-α with respect to -δ: α versus δ isoform
PI3K-δ, sequence (O00329 whole entry, species assumed, canonical isoform): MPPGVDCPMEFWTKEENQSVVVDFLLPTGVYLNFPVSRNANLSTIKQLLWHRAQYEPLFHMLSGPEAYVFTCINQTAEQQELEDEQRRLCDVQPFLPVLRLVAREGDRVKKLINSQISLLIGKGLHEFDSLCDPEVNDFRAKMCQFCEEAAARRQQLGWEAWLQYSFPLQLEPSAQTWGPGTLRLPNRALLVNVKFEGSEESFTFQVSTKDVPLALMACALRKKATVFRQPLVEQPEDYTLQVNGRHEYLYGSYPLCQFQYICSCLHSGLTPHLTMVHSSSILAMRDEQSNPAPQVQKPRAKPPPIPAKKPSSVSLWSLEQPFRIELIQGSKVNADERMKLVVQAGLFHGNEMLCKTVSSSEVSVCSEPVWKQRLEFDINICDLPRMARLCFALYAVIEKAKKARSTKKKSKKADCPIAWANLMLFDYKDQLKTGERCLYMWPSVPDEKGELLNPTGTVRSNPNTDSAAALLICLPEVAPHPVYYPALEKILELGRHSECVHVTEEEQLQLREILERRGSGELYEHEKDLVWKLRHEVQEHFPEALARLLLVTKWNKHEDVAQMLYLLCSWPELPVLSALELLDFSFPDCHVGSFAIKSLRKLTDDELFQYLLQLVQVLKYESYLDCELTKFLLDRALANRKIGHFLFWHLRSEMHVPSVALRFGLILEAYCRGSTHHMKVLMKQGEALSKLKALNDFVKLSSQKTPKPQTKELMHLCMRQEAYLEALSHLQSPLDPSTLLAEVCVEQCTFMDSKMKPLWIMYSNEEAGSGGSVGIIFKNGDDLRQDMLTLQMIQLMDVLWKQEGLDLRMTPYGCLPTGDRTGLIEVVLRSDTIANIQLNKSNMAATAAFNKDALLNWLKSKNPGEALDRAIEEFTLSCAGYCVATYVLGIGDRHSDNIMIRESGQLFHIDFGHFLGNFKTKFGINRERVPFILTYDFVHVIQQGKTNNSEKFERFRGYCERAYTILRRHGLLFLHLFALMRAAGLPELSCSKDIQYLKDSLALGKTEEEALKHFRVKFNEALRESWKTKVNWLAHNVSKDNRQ
PI3K-δ, sequence (P27986 whole entry partner, species assumed, canonical isoform): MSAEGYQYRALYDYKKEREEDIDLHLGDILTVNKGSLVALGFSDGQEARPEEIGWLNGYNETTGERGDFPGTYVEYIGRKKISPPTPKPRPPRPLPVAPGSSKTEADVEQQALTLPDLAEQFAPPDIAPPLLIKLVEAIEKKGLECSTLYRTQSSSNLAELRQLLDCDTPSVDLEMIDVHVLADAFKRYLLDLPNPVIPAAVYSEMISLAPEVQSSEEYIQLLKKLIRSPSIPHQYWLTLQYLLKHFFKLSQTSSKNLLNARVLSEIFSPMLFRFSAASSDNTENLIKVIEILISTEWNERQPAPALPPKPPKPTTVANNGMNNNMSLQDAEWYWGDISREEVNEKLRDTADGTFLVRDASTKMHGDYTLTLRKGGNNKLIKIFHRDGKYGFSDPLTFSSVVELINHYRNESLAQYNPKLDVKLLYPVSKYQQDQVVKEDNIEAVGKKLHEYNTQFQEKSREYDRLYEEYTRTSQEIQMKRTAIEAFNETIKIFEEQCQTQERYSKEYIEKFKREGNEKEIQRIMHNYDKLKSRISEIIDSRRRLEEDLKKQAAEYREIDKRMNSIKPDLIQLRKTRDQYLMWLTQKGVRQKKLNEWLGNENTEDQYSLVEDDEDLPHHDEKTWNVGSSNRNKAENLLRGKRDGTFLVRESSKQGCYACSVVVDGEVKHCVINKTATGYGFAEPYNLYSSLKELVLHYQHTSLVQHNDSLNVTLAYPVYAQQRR
Procedure: Compounds proposed in present invention were evaluated for their inhibitory activity on phosphoinositide-3-kinase-alpha and other isoforms (beta, gamma and delta). […] The protocols used for these bioassays are as follows:
The enzyme is assayed for 120 min after which 20 ul of ADP-Glo reagent is added. After a further incubation of 40 min, 40 ul of Kinase Detection Buffer is added. The assays are incubated for 40 min and then read on PerkinElmer Envision for 1 sec/well.

PI3K-α, sequence (P42336 whole entry, canonical isoform): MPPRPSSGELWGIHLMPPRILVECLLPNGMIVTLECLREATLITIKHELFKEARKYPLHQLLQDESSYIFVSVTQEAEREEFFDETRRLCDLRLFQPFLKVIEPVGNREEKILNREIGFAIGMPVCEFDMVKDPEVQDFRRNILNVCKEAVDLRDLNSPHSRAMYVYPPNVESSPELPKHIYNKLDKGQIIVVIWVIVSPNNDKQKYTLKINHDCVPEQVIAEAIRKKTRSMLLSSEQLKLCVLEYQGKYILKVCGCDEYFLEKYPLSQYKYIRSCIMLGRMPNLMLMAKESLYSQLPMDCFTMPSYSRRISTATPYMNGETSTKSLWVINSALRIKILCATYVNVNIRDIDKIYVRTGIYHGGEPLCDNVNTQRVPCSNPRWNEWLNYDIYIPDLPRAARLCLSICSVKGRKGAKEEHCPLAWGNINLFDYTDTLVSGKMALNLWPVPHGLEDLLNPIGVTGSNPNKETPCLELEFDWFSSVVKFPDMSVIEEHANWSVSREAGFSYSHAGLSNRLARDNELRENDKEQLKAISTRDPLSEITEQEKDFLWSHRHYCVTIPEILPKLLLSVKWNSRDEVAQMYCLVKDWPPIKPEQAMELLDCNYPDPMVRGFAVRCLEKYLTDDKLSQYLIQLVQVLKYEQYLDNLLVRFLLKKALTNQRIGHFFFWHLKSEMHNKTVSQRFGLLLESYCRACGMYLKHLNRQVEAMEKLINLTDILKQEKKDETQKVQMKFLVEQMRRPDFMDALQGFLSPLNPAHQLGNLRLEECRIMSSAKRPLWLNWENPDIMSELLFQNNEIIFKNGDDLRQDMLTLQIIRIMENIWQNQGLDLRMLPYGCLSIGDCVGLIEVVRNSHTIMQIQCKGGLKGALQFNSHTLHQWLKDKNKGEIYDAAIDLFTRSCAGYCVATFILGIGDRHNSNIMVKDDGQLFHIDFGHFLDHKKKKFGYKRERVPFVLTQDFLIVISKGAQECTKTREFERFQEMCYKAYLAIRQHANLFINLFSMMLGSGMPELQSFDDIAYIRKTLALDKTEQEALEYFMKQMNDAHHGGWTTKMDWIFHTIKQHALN
PI3K-α, sequence (P27986 whole entry partner, canonical isoform): as the sequence (P27986 whole entry partner, species assumed, canonical isoform) above
PI3K-γ, sequence (P48736 whole entry, species assumed, canonical isoform): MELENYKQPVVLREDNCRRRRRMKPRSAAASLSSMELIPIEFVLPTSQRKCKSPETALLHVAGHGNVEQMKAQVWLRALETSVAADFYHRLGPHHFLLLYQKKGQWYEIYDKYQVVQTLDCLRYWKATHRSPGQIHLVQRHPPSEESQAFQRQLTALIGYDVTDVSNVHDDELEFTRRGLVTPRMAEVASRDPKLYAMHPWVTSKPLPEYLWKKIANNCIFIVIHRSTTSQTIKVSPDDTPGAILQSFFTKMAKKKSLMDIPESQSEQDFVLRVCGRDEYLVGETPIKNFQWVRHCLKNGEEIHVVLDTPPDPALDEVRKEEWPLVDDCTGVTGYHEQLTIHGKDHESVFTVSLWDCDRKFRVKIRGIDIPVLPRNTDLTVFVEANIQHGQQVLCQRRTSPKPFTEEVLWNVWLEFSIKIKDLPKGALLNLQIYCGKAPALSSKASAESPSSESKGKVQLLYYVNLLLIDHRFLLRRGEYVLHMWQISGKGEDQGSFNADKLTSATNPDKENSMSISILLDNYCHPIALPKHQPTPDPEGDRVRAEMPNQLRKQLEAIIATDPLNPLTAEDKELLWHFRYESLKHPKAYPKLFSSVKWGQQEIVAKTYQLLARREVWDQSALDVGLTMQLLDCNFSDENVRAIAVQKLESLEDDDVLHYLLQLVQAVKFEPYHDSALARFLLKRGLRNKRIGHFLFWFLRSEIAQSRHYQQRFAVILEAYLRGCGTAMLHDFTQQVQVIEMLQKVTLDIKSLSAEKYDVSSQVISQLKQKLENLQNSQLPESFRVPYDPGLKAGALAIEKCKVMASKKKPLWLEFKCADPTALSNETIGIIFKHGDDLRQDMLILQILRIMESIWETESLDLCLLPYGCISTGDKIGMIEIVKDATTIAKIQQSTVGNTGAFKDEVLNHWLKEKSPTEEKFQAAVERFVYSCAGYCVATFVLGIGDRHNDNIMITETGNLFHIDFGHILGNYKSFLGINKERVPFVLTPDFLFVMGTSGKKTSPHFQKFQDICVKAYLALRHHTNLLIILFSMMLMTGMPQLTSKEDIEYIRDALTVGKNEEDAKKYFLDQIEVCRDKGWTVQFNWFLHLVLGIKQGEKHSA
PI3K-β, sequence (P42338 whole entry, species assumed, canonical isoform): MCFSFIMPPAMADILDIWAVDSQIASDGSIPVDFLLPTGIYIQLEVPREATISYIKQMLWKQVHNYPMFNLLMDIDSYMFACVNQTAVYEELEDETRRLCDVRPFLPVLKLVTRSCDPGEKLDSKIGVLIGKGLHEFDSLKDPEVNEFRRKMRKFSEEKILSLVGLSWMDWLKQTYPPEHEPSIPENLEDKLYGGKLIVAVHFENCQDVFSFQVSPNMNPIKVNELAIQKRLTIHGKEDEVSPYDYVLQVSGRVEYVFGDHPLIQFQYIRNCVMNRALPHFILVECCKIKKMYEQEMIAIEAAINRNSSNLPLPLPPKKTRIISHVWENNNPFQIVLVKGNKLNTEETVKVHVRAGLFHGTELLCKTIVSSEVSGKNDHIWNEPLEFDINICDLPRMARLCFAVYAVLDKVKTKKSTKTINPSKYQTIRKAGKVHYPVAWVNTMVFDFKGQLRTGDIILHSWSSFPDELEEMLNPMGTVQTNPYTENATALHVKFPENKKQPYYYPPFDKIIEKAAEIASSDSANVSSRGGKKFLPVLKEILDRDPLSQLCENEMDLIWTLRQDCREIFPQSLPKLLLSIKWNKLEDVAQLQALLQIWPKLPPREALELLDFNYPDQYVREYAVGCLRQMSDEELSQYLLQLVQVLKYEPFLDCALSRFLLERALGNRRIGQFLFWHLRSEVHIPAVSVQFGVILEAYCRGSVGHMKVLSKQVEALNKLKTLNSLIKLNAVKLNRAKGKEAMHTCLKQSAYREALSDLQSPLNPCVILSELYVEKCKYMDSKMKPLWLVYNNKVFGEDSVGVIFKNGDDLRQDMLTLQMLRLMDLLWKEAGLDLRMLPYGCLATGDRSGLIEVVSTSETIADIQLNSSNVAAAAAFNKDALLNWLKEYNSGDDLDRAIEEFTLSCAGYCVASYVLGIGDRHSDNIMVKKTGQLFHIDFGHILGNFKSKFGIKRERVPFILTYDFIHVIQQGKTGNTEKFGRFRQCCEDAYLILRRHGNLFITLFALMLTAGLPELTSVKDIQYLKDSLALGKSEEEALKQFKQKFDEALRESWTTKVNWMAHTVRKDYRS
PI3K-β, sequence (P27986 whole entry partner, species assumed, canonical isoform): as the sequence (P27986 whole entry partner, species assumed, canonical isoform) above

inhibition at 0.5 µM (PI3K-α; 0.5 μM, preliminary screening) | IC50 (PI3K-α) | IC50 (PI3K-β) | Fold-selectivity for PI3K-α with respect to -β (PI3K-β) | IC50 (PI3K-γ) | Fold-selectivity for PI3K-α with respect to -γ (PI3K-γ) | IC50 (PI3K-δ) | Fold-selectivity for PI3K-α with respect to -δ (PI3K-δ) | % Inhibition of PI3K-α at 0.5 μM (PI3K-α; 0.5 μM, preliminary screening) | SMILES | IC50 (HL-60 (leukemia) cells) | IC50 (A-375 (melanoma) cells) | IC50 [1] | IC50 [2] | IC50 [3]
17% |  |  |  |  |  |  |  |  | N#CCc1ccc(Nc2ncnc3ccc(-c4ccc(F)cc4F)cc23)cc1 [Compound 7, 6-(2,4-difluorophenyl)-4-(4-cyanomethyl)phenylamino quinazoline] | 7 µM | 9 µM | 10 µM | 21 µM | 28 µM
 | 0.115 µM | 0.67 µM | 5.8 fold | 1.84 µM | 16 fold | 0.27 µM | 2.3 fold | 69.9% | N#CCc1ccc(Nc2ncnc3ccc(-c4cccc(O)c4)cc23)cc1 [Compound 10, 6-(3-hydroxyphenyl)-4-(4-cyanomethyl)phenylamino quinazoline] | 24 µM | 28 µM | 15 µM | 36 µM | 37 µM
36.4% | > 10 µM | > 10 µM | 1 fold | 0.52 µM |  | > 10 µM | 1 fold |  | C=Cc1ccc(-c2ccc3ncnc(Nc4ccc(CC#N)cc4)c3c2)cc1 [Compound 13, 6-(4-vinylphenyl)-4-(4-cyanomethyl)phenylamino quinazoline] | 16 µM | 27 µM | 11 µM | 32 µM | 34 µM
< 0% |  |  |  |  |  |  |  |  | N#CCc1ccc(Nc2ncnc3ccc(-c4ccc(-c5ccccc5)cc4)cc23)cc1 [Compound 16, 6-(4-phenylphenyl)-4-(4-cyanomethyl)phenylamino-quinazoline] | 16 µM | 13 µM | 29 µM | 30 µM | 10 µM
< 0% |  |  |  |  |  |  |  |  | CCOc1ccc(-c2ccc(-c3ccc4ncnc(Nc5ccc(CC#N)cc5)c4c3)cc2)cc1 [Compound 17, 6-(4-(4-ethoxyphenyl)phenyl)-4-(4-cyanomethyl)phenylamino-quinazoline] | 16 µM | 30 µM | 26 µM | 33 µM | 17 µM
20.3% |  |  |  |  |  |  |  |  | N#CCc1ccc(Nc2ncnc3ccc(-c4ccc(-c5ccccc5)cc4F)cc23)cc1 [Compound 18, 6-(4-phenyl-2-fluorophenyl)-4-(4-cyanomethyl)phenylamino-quinazoline] | 16 µM | 32 µM | 13 µM | 33 µM | 14 µM
8.2% |  |  |  |  |  |  |  |  | N#CCc1ccc(Nc2ncnc3ccc(-c4ccc5ccccc5c4)cc23)cc1 [Compound 19, 6-(naphthalen-2-yl)-4-(4-cyanomethyl)phenylamino-quinazoline] | 25 µM | 31 µM | 16 µM | 48 µM | 22 µM
29.8% |  |  |  |  |  |  |  |  | N#CCc1ccc(Nc2ncnc3ccc(-c4cc5ccccc5o4)cc23)cc1 [Compound 22, 6-(benzofuran-2-yl)-4-(4-cyanomethyl)phenylamino-quinazoline] | 17 µM | 10 µM | 9 µM | 28 µM | 8 µM
1.5% |  |  |  |  |  |  |  |  | N#CCc1ccc(Nc2ncnc3ccc(-c4cccc5c4oc4ccccc45)cc23)cc1 [Compound 24, 6-(dibenzo(b,d)furan-4-yl)-4-(4-cyanomethyl)phenylamino-quinazoline] | 12 µM | 36 µM | 27 µM | 31 µM | 16 µM

Continued, compound first:

SMILES | inhibition at 0.5 µM (PI3K-α; 0.5 μM, preliminary screening) | IC50 (PI3K-α) | IC50 (PI3K-β) | Fold-selectivity for PI3K-α with respect to -β (PI3K-β) | IC50 (PI3K-γ) | Fold-selectivity for PI3K-α with respect to -γ (PI3K-γ) | IC50 (PI3K-δ) | Fold-selectivity for PI3K-α with respect to -δ (PI3K-δ) | % Inhibition of PI3K-α at 0.5 μM (PI3K-α; 0.5 μM, preliminary screening) | IC50 (HL-60 (leukemia) cells) | IC50 (A-375 (melanoma) cells) | IC50 [1] | IC50 [2] | IC50 [3]
N#CCc1ccc(Nc2ncnc3ccc(-c4ccccc4)cc23)cc1 [Compound 6, 6-phenyl-4-(4-cyanomethyl)phenylamino quinazoline] | 16.4% |  |  |  |  |  |  |  |  | 32 µM | 24 µM | 23 µM | 40 µM | 27 µM
N#CCc1ccc(Nc2ncnc3ccc(-c4ccccc4C=O)cc23)cc1 [Compound 8, 6-(2-formylphenyl)-4-(4-cyanomethyl)phenylamino quinazoline] | 1.3% |  |  |  |  |  |  |  |  | 42 µM | 39 µM | 91 µM | 90 µM | 21 µM
CC(=O)c1ccc(-c2ccc3ncnc(Nc4ccc(CC#N)cc4)c3c2)cc1 [Compound 9, 6-(4-acetylphenyl)-4-(4-cyanomethyl)phenylamino quinazoline] | 44% | 0.27 µM | > 10 µM | >37 fold | 0.15 µM | 0.5 fold | > 10 µM | >37 fold |  | 28 µM | 32 µM | 45 µM | 13 µM | 24 µM
N#CCc1ccc(Nc2ncnc3ccc(-c4cccc([N+](=O)[O-])c4)cc23)cc1 [Compound 11, 6-(3-nitrophenyl)-4-(4-cyanomethyl)phenylamino quinazoline] | 38.1% | 0.451 µM | > 10 µM | >22.2 fold | 0.85 µM | 1.9 fold | > 10 µM | >22.2 fold |  | 15 µM | 23 µM | 12 µM | 7 µM | 29 µM
Cc1ccccc1-c1ccc2ncnc(Nc3ccc(CC#N)cc3)c2c1 [Compound 12, 6-(2-methylphenyl)-4-(4-cyanomethyl)phenylamino quinazoline] | 4.1% |  |  |  |  |  |  |  |  | 36 µM | 32 µM | > 100 µM | 68 µM | 38 µM
N#CCc1ccc(Nc2ncnc3ccc(-c4ccc(OCc5ccc(F)cc5)cc4)cc23)cc1 [Compound 14, 6-(4-fluorobenzyloxyphen-4-yl)-4-(4-cyanomethyl)phenylamino quinazoline] | 11% |  |  |  |  |  |  |  |  | 14 µM | 16 µM | 12 µM | 13 µM | 13 µM
N#CCc1ccc(Nc2ncnc3ccc(-c4cc5ccccc5s4)cc23)cc1 [Compound 23, 6-(benzo[b]thiophen-2-yl)-4-(4-cyanomethyl)phenylamino-quinazoline] | 2.7% |  |  |  |  |  |  |  |  | 14 µM | 14 µM | 8 µM | 24 µM | 13 µM
N#CCc1ccc(Nc2ncnc3ccc(-c4cccc5c4sc4ccccc45)cc23)cc1 [Compound 25, 6-(dibenzo(b,d)thiophene-4-yl)-4-(4-cyanomethyl)phenylamino-quinazoline] | < 0% |  |  |  |  |  |  |  |  | 31 µM | 34 µM | 34 µM | 33 µM | 18 µM
N#CCc1ccc(Nc2ncnc3ccc(-c4cnc5ccccc5c4)cc23)cc1 [Compound 27, 6-(quinolin-3-yl)-4-(4-cyanomethyl)phenylamino-quinazoline] | < 0% |  |  |  |  |  |  |  |  | 44 µM | 89 µM | 32 µM | 90 µM | 23 µM
